In patent publication US20240285623A1, “TRPA1 CHANNEL ANTAGONIST COMPOUND FOR USE IN DEGENERATIVE RETINAL DISEASES” (FLONEXT S.R.L., priority 2021, published 2024):

Tests used:
[1] = test system: RPE layer (retinal pigmented epithelium); assay: Immunofluorescence (RPE65) for assessing damage of the retinal pigment epithelium in the NalO3-induced mouse model of macular degeneration; assay type: in vivo, C57BL/6J male mice; conditions: for protection of the retina from NalO3-induced damage of the cells of the RPE layer (in words): NalO3 mouse model, eye drops; for reduction of the NalO3-induced damage on the RPE layer compared to V2 (RPE65 staining intensity): eye drops 5 μl of 10 mM solution, 60 min before NalO3 (20 mg/kg, retro-orbital vein) then 3 times a day, retina collected day 4, mean±SEM, P<0.01 vs. V2/NalO3
Description: (§1) To create a valid model of macular degeneration, the systemic administration (via the retro-orbital vein) of NalO3 was carried out in C57BL/6J male mice aged 5-8 weeks and weighing 22-25 g supplied by the Charles River company (Milan, Italy). In order to carry out the experiments described below, a total of 36 mice were used. The animals were kept in a temperature and humidity-controlled environment (12-hour dark/light cycle, free access to food and water). The experiments were performed in a temperature-controlled room (20 to 22° C.) between 8:00 and 20:00. At the end of the experiment, the animals were euthanized by inhalation of a mixture of 50% O2/50% CO2 for 1 minute. The NalO3, DMSO, Tween 80 and NaCl 0.9% reagents used in the study were purchased from Merck Life Science SRL (Milan, Italy).
(§2) The mice were administered locally, through eye drops, the compounds indicated above or their vehicle consisting of 4% DMSO, 4% Tween 80 in 0.9% NaCl.
(§3) In particular, a group of 6 mice (used as a control) was administered by instillation, 60 minutes before the injection into the retro-orbital vein (1 ml/kg) of the vehicle (V1) (NaCl, 0.9%) of NalO3 and subsequently 3 times a day, eye drops (5 μl) containing the vehicle (V2) (4% DMSO, 4% Tween 80 in NaCl 0.9%) of the drugs.
(§4) Another 30 mice received, in groups of 6 mice each, 60 minutes before the injection into the retro-orbital vein (1 ml/kg) of NalO3 (1%, 20 mg/kg) and subsequently 3 times a day, eye drops (5 μl) of a 10 mM solution of the above-mentioned compounds FN-005, FN-006, FN-007, FN-008 or their vehicle (V2) (4% DMSO, 4% Tween 80 in 0.9% NaCl) by instillation.
(§5) For each group of mice, the first administration (day 1) of the compound of formula (IV), of the compound of formula (I), of the compound of formula (II) and of the compound of formula (III) or of the vehicle (V2) was performed 60 minutes before the injection of NalO3 or its vehicle (V1) and the second and third administration were performed 6 and 12 hours after the injection of vehicle (V1) or NalO3, respectively. On the two days (day 2 and day 3) following the injection of vehicle (V1) or NalO3, the compounds of formula (IV), (I), (II), and (III) or vehicle (V2) were administered to the various groups of mice at 8:00, 14:00 and 20:00.
(§6) At 09:00 on day 4 after the treatment with vehicle (V1) or NalO3 the mice given the compounds indicated above as FN-005, FN-006, FN-007, FN-008 or their vehicle (V2) were sacrificed (as previously reported) and the eyeballs were enucleated and processed for subsequent analysis of the damage.
Direct immunofluorescence was used to assess damage to the RPE (retinal pigmented epithelium), which corresponds to the layer of pigmented cells immediately adjacent to the neurosensory retina which nourishes the visual cells of the retina, and is firmly attached to the underlying choroid and the overlying visual retinal cells.
The staining intensity of the RPE layer was quantified using a primary antibody (RPE65, #ab13826, mouse monoclonal, 1:100, Abcam, Cambridge, UK) to which a second fluorophore-labelled antibody (Alexa Fluor 488, #A28175, Thermo Fisher Scientific) binds in the 6 groups of mice treated with V2/V1, V2/NalO3, with the compound of formula (IV) and NalO3 (FN-005/NalO3), with the compound of formula (I) of polycyclic heteroaromatic derivatives and NalO3 (FN-006/NalO3), with the compound of formula (II) and NalO3 (FN-007/NalO3) and with the compound of formula (III) and NalO3 (FN-008/NalO3). Cell nuclei were visualized using the DAPI organic dye (#ab228549, Abcam, Cambridge, UK).
The data relating to the fluorescence intensity value are presented for each treatment as mean±SEM. *p<0.05 vs V1/V2; § p<0.05 vs NalO3 in FIG. 1B. Statistical analysis using one-way analysis of variance (ANOVA) test and Bonferroni test.

4-hydroxynonenal (4-HNE) = assay: Assessment of oxidative stress at the retinal level (4-HNE immunofluorescence) in the NalO3-induced mouse model of macular degeneration; assay type: in vivo, C57BL/6J male mice; conditions: for protection of the retina from the NalO3-induced increase of 4-HNE (in words): NalO3 mouse model, eye drops; for reduction of the retinal levels of 4-HNE (immunofluorescence): eye drops 5 μl of 10 mM solution, 60 min before NalO3 (20 mg/kg, retro-orbital vein) then 3 times a day, retina collected day 4, mean±SEM, P<0.01 vs. V2/NalO3
Description: as §1, §2, §3, §4, §5, §6
The level of oxidative stress was also assessed throughout the thickness of the retina by measuring the immunofluorescence intensity for the reactive carbonyl species, 4-hydroxynonenal (4-HNE), a final indicator of oxidative stress.
Levels of 4-HNE were quantified using a primary antibody (#ab48506, monoclonal mouse [HNEJ-2], 1:40, Abcam, Cambridge, UK) to which a second fluorophore-labelled antibody (Alexa Fluor 594, #A A32742, Thermo Fisher Scientific) binds in the 6 groups of mice treated as described above.
Cell nuclei were visualized using the DAPI organic dye (#ab228549, Abcam, Cambridge, UK).
The data relating to the fluorescence intensity value are presented for each treatment as mean±SEM. *p<0.05 vs V1/V2; § p<0.05 vs NalO3 in FIG. 2B. Statistical analysis using one-way analysis of variance (ANOVA) test and Bonferroni test.

SMILES | protection of the retina from NalO3-induced damage of the cells of the RPE layer (in words) [1] | reduction of the NalO3-induced damage on the RPE layer compared to V2 (RPE65 staining intensity) [1] | protection of the retina from the NalO3-induced increase of 4-HNE (in words) (4-hydroxynonenal (4-HNE)) | reduction of the retinal levels of 4-HNE (immunofluorescence) (4-hydroxynonenal (4-HNE))
Cc1cc2[nH]ncc2cc1-c1ccccc1C(F)(F)F [compound of formula (III)] | particularly effective in protecting the retina | 96.8±20.0% | protected the retina | 62.10±7.55%
C[C@H]1[C@H](F)C[C@@H](C(=O)NCc2cc(-c3cnc(C(F)(F)F)nc3)ncc2C(F)(F)F)N1S(=O)(=O)c1ccc(F)cc1 [compound of formula (IV)] | particularly effective in protecting the retina | 84.5±33% | protected the retina | 64.16±17.51%
COCCCOc1cccc([C@H]2NC(=S)NC3=C2C(=O)c2ccccc23)c1 [compound of formula (II)] | particularly effective in protecting the retina | 60.0±12.8% | protected the retina | 50.32±6.30%
